ChEMBL document CHEMBL4414679, “Discovery of 4,6-pyrimidinediamine derivatives as novel dual EGFR/FGFR inhibitors aimed EGFR/FGFR1-positive NSCLC” (Eur J Med Chem, 2020)
pIC50: −log10 of the molar value.

How the values were obtained:
[1] = Antitumor activity against human HCC827GR cells xenografted in BALB/c nude mouse assessed as reduction in tumor weight at 15 mg/kg, ip dosed every 2 days (reference value: 0.82 +/- 0.06 g); format: functional
[2] = target: CDK2/Cyclin A2 (Homo sapiens) (UniProt P24941+P20248); assay: Inhibition of CDK2/cyclin A2 (unknown origin) at 10 uM using FAM-labelled peptide as substrate pre-incubated for 10 mins followed by substrate addition by mobility shift assay relative to control; format: protein-complex assay
[3] = Induction of apoptosis in gefitinib-insensitive human HCC827GR cells assessed as late apoptotic cells at 2.5 uM measured after 24 hrs by Annexin-V/propidium iodide staining-based flow cytometric analysis (reference value: 1.5%); format: functional
[4] = target: Fibroblast growth factor receptor 3 (Homo sapiens) (UniProt P22607); assay: Inhibition of N-terminal GST tagged human FGFR3 cytoplasmic domain (436 to 806 AA) expressed in baculovirus at 10 uM using FAM-labelled peptide as substrate pre-incubated for 10 mins followed by substrate addition by mobility shift assay relative to control
Sequence of Fibroblast growth factor receptor 3 (Homo sapiens) (P22607 23-806 limits assumed): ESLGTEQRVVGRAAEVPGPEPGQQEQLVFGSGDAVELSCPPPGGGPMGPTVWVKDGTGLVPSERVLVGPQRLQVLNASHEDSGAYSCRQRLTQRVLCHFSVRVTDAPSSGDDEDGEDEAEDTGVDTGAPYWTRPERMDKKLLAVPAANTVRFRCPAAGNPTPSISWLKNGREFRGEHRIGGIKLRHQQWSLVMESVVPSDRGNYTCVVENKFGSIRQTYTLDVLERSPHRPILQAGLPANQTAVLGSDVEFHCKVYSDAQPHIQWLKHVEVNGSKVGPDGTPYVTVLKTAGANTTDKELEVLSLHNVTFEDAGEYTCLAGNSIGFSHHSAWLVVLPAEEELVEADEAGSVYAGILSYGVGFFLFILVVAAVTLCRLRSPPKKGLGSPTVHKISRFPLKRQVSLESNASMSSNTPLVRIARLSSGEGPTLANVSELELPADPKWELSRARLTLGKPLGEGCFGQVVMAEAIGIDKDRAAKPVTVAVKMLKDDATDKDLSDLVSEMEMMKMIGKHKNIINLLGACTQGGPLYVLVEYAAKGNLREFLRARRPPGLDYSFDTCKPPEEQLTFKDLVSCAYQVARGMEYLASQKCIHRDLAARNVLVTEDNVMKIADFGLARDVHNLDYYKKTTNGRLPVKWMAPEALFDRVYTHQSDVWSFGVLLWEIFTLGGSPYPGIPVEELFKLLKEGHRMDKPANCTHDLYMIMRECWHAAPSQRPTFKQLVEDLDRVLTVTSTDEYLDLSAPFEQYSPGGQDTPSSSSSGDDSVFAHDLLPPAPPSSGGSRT

[5] = target: Epidermal growth factor receptor (Homo sapiens, UniProt P00533); assay: Inhibition of N-terminal GST-tagged human EGFR cytoplasmic domain (669-1210 AA) expressed in baculovirus at 10 uM using FAM-labelled peptide as substrate pre-incubated for 10 mins followed by substrate addition by mobility shift assay relative to control
Sequence of Epidermal growth factor receptor (P00533 whole entry, the tested form may be a part): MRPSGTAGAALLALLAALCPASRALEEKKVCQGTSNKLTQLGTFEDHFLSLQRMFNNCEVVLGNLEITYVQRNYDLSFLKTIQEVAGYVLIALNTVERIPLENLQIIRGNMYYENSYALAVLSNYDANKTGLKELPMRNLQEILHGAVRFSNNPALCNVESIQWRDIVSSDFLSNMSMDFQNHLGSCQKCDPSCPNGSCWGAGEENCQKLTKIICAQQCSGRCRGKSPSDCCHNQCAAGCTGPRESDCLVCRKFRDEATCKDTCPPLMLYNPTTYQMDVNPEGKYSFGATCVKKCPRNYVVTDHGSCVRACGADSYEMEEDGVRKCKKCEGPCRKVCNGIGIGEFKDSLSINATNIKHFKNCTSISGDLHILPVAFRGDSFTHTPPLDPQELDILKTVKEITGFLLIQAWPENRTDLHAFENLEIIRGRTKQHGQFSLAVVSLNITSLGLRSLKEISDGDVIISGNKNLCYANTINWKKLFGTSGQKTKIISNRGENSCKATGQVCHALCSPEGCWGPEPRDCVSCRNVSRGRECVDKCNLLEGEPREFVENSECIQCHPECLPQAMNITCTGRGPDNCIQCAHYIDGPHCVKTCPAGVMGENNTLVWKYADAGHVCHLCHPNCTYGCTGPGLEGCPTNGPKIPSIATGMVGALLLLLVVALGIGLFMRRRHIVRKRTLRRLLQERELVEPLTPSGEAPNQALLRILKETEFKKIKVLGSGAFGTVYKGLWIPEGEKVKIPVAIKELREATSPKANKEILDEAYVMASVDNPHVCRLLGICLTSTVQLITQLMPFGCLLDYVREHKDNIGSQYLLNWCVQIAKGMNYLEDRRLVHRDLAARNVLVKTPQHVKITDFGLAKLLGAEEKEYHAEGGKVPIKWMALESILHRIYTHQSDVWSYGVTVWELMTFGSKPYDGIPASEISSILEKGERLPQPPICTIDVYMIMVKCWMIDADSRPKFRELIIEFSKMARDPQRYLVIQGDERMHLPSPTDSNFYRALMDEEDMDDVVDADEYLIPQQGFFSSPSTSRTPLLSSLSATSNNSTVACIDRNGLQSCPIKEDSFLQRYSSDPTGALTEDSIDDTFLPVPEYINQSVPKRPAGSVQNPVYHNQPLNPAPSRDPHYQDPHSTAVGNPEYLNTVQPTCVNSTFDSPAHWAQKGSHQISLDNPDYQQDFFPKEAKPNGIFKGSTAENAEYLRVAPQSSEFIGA

[6] = Volume of distribution in Sprague-Dawley rat at 30 mg/kg, po measured upto 24 hrs by UPLC-MS/MS; format: ADME, organism-based; details: in vivo
[7] = target: Mitogen-activated protein kinase 3 (Homo sapiens) (UniProt P27361); assay: Inhibition of full length N-terminal GST-tagged human ERK1 (1 to 379 AA) expressed in Escherichia coli at 10 uM using FAM-labelled peptide as substrate pre-incubated for 10 mins followed by substrate addition by mobility shift assay relative to control
Sequence of Mitogen-activated protein kinase 3 (Homo sapiens) (P27361 whole entry, the tested form may be a part): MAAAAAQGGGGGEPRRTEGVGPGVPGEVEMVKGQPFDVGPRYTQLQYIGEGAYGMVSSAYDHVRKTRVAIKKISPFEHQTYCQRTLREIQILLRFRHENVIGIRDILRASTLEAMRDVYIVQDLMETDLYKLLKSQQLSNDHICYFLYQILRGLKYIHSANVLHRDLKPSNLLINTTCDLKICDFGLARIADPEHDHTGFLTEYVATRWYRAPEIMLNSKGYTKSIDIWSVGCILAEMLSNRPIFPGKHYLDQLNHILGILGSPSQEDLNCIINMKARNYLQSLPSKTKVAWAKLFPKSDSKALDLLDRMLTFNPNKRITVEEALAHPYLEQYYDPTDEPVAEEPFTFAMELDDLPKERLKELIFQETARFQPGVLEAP

NCI-H226 [8] = assay: Induction of apoptosis in human NCI-H226 cells assessed as early apoptotic cells at 5 uM measured after 24 hrs by Annexin-V/propidium iodide staining-based flow cytometric analysis (reference value: 0.8%); format: functional
[9] = target: Cyclin-dependent kinase 5/CDK5 activator 1 (Homo sapiens) (UniProt Q00535+Q15078); assay: Inhibition of CDK5/p35 (unknown origin) at 10 uM using FAM-labelled peptide as substrate pre-incubated for 10 mins followed by substrate addition by mobility shift assay relative to control; format: protein-complex assay
Sequence of Cyclin-dependent kinase 5/CDK5 activator 1 (Homo sapiens) (Q00535 whole entry): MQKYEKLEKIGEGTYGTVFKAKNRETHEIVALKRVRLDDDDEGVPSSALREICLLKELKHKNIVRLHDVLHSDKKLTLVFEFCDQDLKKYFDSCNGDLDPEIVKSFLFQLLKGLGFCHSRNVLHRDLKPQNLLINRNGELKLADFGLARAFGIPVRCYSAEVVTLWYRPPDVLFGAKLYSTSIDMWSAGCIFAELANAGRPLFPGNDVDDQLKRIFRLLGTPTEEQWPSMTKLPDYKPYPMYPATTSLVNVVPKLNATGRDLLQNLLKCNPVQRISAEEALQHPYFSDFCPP
Sequence of Cyclin-dependent kinase 5/CDK5 activator 1 (Homo sapiens) (Q15078 99-307 partner limits assumed): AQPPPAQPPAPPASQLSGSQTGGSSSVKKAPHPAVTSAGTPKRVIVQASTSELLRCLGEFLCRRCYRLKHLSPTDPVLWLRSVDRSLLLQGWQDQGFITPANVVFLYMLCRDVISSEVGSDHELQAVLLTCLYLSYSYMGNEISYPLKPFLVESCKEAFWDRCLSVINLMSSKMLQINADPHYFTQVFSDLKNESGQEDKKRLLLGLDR

NCI-H226 [10] = assay: Antiproliferative activity against human NCI-H226 cells incubated for 48 hrs by MTT assay; format: functional, cell-based; details: NCI-H226, 48 h
PC-9 = assay: Antiproliferative activity against human PC9 cells incubated for 48 hrs by MTT assay; format: functional, cell-based; details: PC-9, 48 h
[11] = AUC (0 to 24 hrs) in Sprague-Dawley rat at 30 mg/kg, po measured upto 24 hrs by UPLC-MS/MS; format: ADME, organism-based; parameters: time < 24 hr, dose 30 mg/kg, route oral; details: in vivo
[12] = target: Wee1-like protein kinase (Homo sapiens) (UniProt P30291); assay: Inhibition of N-terminal GST tagged human WEE1 catalytic domain (215 to 646 AA) expressed in baculovirus at 10 uM using FAM-labelled peptide as substrate pre-incubated for 10 mins followed by substrate addition by mobility shift assay relative to control
Sequence of Wee1-like protein kinase (Homo sapiens) (P30291 whole entry, looked up, the tested form may be a part): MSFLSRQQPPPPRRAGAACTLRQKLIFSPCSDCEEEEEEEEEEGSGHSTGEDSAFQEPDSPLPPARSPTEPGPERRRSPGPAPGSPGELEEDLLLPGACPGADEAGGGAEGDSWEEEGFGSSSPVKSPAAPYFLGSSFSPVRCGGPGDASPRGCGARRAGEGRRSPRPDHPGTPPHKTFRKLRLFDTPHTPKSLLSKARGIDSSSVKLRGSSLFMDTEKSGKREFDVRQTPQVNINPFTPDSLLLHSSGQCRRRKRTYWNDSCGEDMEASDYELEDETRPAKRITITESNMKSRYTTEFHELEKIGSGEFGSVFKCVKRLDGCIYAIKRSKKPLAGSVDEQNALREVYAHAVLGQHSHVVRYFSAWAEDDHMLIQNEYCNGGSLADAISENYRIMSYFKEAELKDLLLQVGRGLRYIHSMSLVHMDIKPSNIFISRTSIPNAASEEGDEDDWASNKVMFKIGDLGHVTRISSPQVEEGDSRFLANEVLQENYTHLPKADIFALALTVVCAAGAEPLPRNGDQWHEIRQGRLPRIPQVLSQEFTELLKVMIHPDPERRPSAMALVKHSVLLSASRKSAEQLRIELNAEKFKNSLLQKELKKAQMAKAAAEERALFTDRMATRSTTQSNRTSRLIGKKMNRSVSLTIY

NCI-H520 = assay: Antiproliferative activity against human NCI-H520 cells incubated for 48 hrs by MTT assay; format: functional, cell-based; details: NCI-H520, 48 h

Q: For COc1ccc(OC)c(Nc2cc(NC(=O)Nc3c(Cl)cccc3Cl)ncn2)c1, which Activity [1] is on record?
A: 0.41 g

Q: What about the inhibition [2] of the same compound?
A: 4.4%

Q: And the Activity [3]?
A: 13.5%

Q: What about the inhibition [4] of the same compound?
A: 15.8%

Q: And the inhibition [5]?
A: 92.7%

Q: And the Vd [6]?
A: 0.03 L/kg

Q: What about the inhibition [7] of the same compound?
A: 8.2%

Q: And the Activity (NCI-H226 [8])?
A: 6.3%

Q: And the inhibition [9]?
A: -2.81%

Q: What about the pIC50 (NCI-H226 [10]) of the same compound?
A: 5.65

Q: What about the pIC50 (PC-9) of the same compound?
A: 5.87

Q: And the AUC(0-t) at 24 h [11]?
A: 9690 ng·h/mL

Q: And the inhibition [12]?
A: 28%

Q: What about the pIC50 (NCI-H520) of the same compound?
A: 5.52
